# Experiments:
# [1] = test system: A-549; assay: cells; settings: Homo sapiens, A549, 48 h
# In short: (§1)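 Colorimetric SRB read (490 nm) on triplicate wells after 48 h at 37 °C, 5% CO2. Dose range 10 to 10^−8 μg/ml; 5×10^3 cells/well pre-attached 18 h.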
# [2] = test system: HT-29; assay: cells; settings: Homo sapiens, HT-29, 48 h
# In short: as §1
# [3] = test system: LoVo; assay: cells; settings: Homo sapiens, LoVo, 48 h
# In short: as §1
# [4] = test system: DU-145; assay: Inhibition of cells growth by colorimetric assay (SRB); settings: Homo sapiens, DU-145, 48 h
# In short: as §1
# [5] = test system: HeLa-APL; assay: as above; settings: Homo sapiens, 48 h
# In short: as §1
# [6] = test system: HeLa; assay: as above; settings: Homo sapiens, HeLa, 48 h
# In short: as §1
# [7] = test system: IGROV-1; assay: as above; settings: Homo sapiens, IGROV-1, 48 h
# In short: as §1
# [8] = test system: IGROV-ET; assay: as above; settings: Homo sapiens, 48 h
# In short: as §1
# [9] = test system: K-562; assay: as above; settings: Homo sapiens, K562, 48 h
# In short: as §1
# [10] = test system: LNCaP; assay: as above; settings: Homo sapiens, LNCaP, 48 h
# In short: as §1
# [11] = test system: LoVo-Dox; assay: as above; settings: Homo sapiens, 48 h
# In short: as §1
# [12] = test system: PANC-1; assay: as above; settings: Homo sapiens, PANC-1, 48 h
# In short: as §1
# [13] = test system: SK-BR-3; assay: as above; settings: Homo sapiens, SK-BR-3, 48 h
# In short: as §1
# [14] = test system: SK-MEL-28; assay: as above; settings: Homo sapiens, SK-MEL-28, 48 h
# In short: as §1
smiles,measurement,setting,value
COc1c(C)cc2c(c1O)[C@H]1N[C@@H](C2)[C@H](O)N2C1[C@@H]1SC[C@]3(NCCc4c3[nH]c3ccc(O)cc43)C(=O)OC[C@H]2c2c3c(c(C)c(OC(C)=O)c21)OCO3 (stereo partly drawn) [compound 65],GI50,[1]; read-out: A549 GI50,22.9 nM
same,CC50,[1]; read-out: A549 LC50,313 nM
same,IC (TGI),[1]; read-out: A549 TGI,56 nM
same,GI50,[2]; read-out: HT29 GI50,4.51 nM
same,CC50,[2]; read-out: HT29 LC50,13200 nM
same,IC (TGI),[2]; read-out: HT29 TGI,196 nM
same,GI50,[3]; read-out: LOVO GI50,6.78 nM
same,CC50,[3]; read-out: LOVO LC50,2960 nM
same,IC (TGI),[3]; read-out: LOVO TGI,36.9 nM
same,GI50,[4]; read-out: DU145 GI50,2.63 nM
same,CC50,[4]; read-out: DU145 LC50,4770 nM
same,IC (TGI),[4]; read-out: DU145 TGI,6.45 nM
same,GI50,[5]; read-out: HELA-APL GI50,2 nM
same,CC50,[5]; read-out: HELA-APL LC50,8.46 nM
same,IC (TGI),[5]; read-out: HELA-APL TGI,4.1 nM
same,GI50,[6]; read-out: HELA GI50,2.34 nM
same,CC50,[6]; read-out: HELA LC50,9.99 nM
same,IC (TGI),[6]; read-out: HELA TGI,4.82 nM
same,GI50,[7]; read-out: IGROV GI50,4.07 nM
same,CC50,[7]; read-out: IGROV LC50,2990 nM
same,IC (TGI),[7]; read-out: IGROV TGI,11.4 nM
same,GI50,[8]; read-out: IGROV-ET GI50,76 nM
same,CC50,[8]; read-out: IGROV-ET LC50,3300 nM
same,IC (TGI),[8]; read-out: IGROV-ET TGI,406 nM
same,GI50,[9]; read-out: K562 GI50,1.22 nM
same,CC50,[9]; read-out: K562 LC50,7800 nM
same,IC (TGI),[9]; read-out: K562 TGI,13.9 nM
same,GI50,[10]; read-out: LNCAP GI50,0.875 nM
same,CC50,[10]; read-out: LNCAP LC50,6.16 nM
same,IC (TGI),[10]; read-out: LNCAP TGI,2.54 nM
same,GI50,[11]; read-out: LOVO-DOX GI50,399 nM
same,CC50,[11]; read-out: LOVO-DOX LC50,13200 nM
same,IC (TGI),[11]; read-out: LOVO-DOX TGI,1050 nM
same,GI50,[12]; read-out: PANC-1 GI50,3.99 nM
same,CC50,[12]; read-out: PANC-1 LC50,4250 nM
same,IC (TGI),[12]; read-out: PANC-1 TGI,12.3 nM
same,GI50,[13]; read-out: SK-BR3 GI50,2.97 nM
same,CC50,[13]; read-out: SK-BR3 LC50,209 nM
same,IC (TGI),[13]; read-out: SK-BR3 TGI,7.66 nM
same,GI50,[14]; read-out: MEL-28 GI50,3.78 nM
same,CC50,[14]; read-out: MEL-28 LC50,42 nM
same,IC (TGI),[14]; read-out: MEL-28 TGI,10.8 nM

# Reference: US7767659B2, “Synthesis of naturally occurring ecteinascidins and related compounds” (Pharma Mar, S.A., priority 2002, dated 2010)
